Results on 2 molecules are retold here after patent US20230059873A1, “EXPANSION OF STEM CELLS IN SUSPENSION IN A BIOREACTOR” (REPAIRON GMBH, priority 2019, published 2023).

Common to all, as to assay type: cell-based, human
For assay [1], the system named is iPSCs (TC1133); OCT4, TRA-1-60. Kind of assay: Expression of pluripotency-related genes at end of passages in long-term suspension culture (Example 1). As to the method: (§1) • 13 ml with 2.5×10^5 cells/ml per vessel in passage 0; 5×10^5 cells/ml per vessel at all other passages. • Medium Change: 62% Exchange per day • Cells: TC1133, NINDS • Culture conditions: 37° C., pH 7.4, dO 23.8%, 300 rpm downstirr.
• 1. Y27632 treatment of iPSC aggregates at a final concentration of 10 μM two hours before dissociation. • 2. Two times washing with Versene: Stop of stirring for two minutes, removal of medium to 2 mL without disturbing sedimented aggregates, addition of Versene to 10 mL, starting the stirring (300 rpm, downwards) for 10 seconds. • 3. Removal of medium to 2 mL in the same way as described in the washing steps and addition of Versene to 5 mL. • 4. Stirring at 600 rpm for up to 15 min until dissociation is sufficient. […] Reduce stirring to 300 rpm. • 6. Cell count. • 7. Transfer a volume of cell suspension into a fresh ambr15 vessel resulting in a seeding concentration of 2-5×10^5 cells/mL, thereby diluting the cell dissociation reagent by addition of an excess volume (at least 5-fold) of iPS-Brew […]

The test system of assay [2] is iPSCs (TC1133); OCT4, NANOG, TRA-1-60. The experiment in a line: Effect of ROCKi pretreatment (4 h) on expression of pluripotency-related markers in iPSCs (Example 4). As to the method: as §1
• 1. Y27632 treatment of iPSC aggregates at a final concentration of 10 μM two hours before dissociation. • 2. Two times washing with Versene: Stop of stirring for two minutes, removal of medium to 2 mL without disturbing sedimented aggregates, addition of Versene to 10 mL, starting the stirring (300 rpm, downwards) for 10 seconds. • 3. Removal of medium to 2 mL in the same way as described in the washing steps and addition of Versene to 5 mL. • 4. Stirring at 600 rpm for up to 15 min until dissociation is sufficient. In progress controls have to be observed microscopically to assess the right degree of dissociation. • 5. Reduce stirring to 300 rpm. • 6. Cell count. • 7. Transfer a volume of cell suspension into a fresh ambr15 vessel resulting in a seeding concentration of 2-5×10^5 cells/mL, thereby diluting the cell dissociation reagent by addition of an excess volume (at least 5-fold) of iPS-Brew
(§2) • ambr15 cell culture 24 Disposable bioreactors, Low temp, no sparge, Part number: 001-2B81 • StemMACS iPS-Brew XF, Basal Medium, Order no.: 130-107-086 • StemMACS™ iPS-Brew XF 50× Supplement; Order no.: 130-107-087 • ROCKi Y27632; Stemolecule • Versene Solution, Cat No.: 15040-033 • Ambr15 bioreactor, Sartorius Stedim • Nucleocounter NC-200 Type 900-0201 • Cellavista Cell Imager • Flow Cytometer: BD LSR II Special Order System
The aim of this example was to analyze the effects of ROCKi pretreatment on passaging of iPSCs in suspension. Example 4 was performed like Examples 1-3 except that the ROCKi pretreatment was performed for 4 h.

The subject of assay [3] is iPSCs (TC1133). The experiment in a line: Effect of ROCKi pretreatment (4 h) on passaging of iPSCs in suspension (Example 4): aggregate size and expansion rate. As to the method:
as §1
• 1. […] Two times washing with Versene: Stop of stirring for two minutes, removal of medium to 2 mL without disturbing sedimented aggregates, addition of Versene to 10 mL, starting the stirring (300 rpm, downwards) for 10 seconds. • 3. Removal of medium to 2 mL in the same way as described in the washing steps and addition of Versene to 5 mL. • 4. Stirring at 600 rpm for up to 15 min until dissociation is sufficient. […] Reduce stirring to 300 rpm. • 6. Cell count. • 7. Transfer a volume of cell suspension into a fresh ambr15 vessel resulting in a seeding concentration of 2-5×10^5 cells/mL, thereby diluting the cell dissociation reagent by addition of an excess volume (at least 5-fold) of iPS-Brew
as §2
The aim of this example was to analyze the effects of ROCKi pretreatment on passaging of iPSCs in suspension.

In assay [4] the test system is iPSCs (TC1133). Kind of assay: Long-term suspension culture of iPSCs in ambr15 bioreactor with automated passaging, ROCKi vs TZV (Example 1): aggregate size and expansion. The note with it: for aggregate size: end of all passages except passage 0, ROCK inhibitor used during passaging. As to the method: as §1
• 1. Y27632 treatment of iPSC aggregates at a final concentration of 10 μM two hours before dissociation. • 2. Two times washing with Versene: Stop of stirring for two minutes, removal of medium to 2 mL without disturbing sedimented aggregates, addition of Versene to 10 mL, starting the stirring (300 rpm, downwards) for 10 seconds. • 3. Removal of medium to 2 mL in the same way as described in the washing steps and addition of Versene to 5 mL. • 4. Stirring at 600 rpm for up to 15 min until dissociation is sufficient. […] Reduce stirring to 300 rpm. • 6. Cell count. • 7. Transfer a volume of cell suspension into a fresh ambr15 vessel resulting in a seeding concentration of 2-5×10^5 cells/mL, thereby diluting the cell dissociation reagent by addition of an excess volume (at least 5-fold) of iPS-Brew
as §2

The mark [5] stands for this setting: day 3 after passaging, ROCKi pretreated.
Setting [6] is: day 4 of passage 0 (day of passaging, cells to be pretreated).
[7] abbreviates: day 5 after passaging, ROCKi pretreated.
Where [8] appears, read: day 3 after passaging, with ROCKi pretreatment.

On to `C[C@@H](N)[C@H]1CC[C@H](C(=O)Nc2ccncc2)CC1` [ROCKi, Y27632], for which, in assay [1] (end of every analyzed passage), the “expression of pluripotency-related genes (OCT4, TRA-1-60)” value was “high”. For the same molecule, the NANOG expression in assay [2] (setting [5]) turned out to be 93.6%; in assay [2] (setting [6]), 96.9%; in assay [2] (setting [7]), 81.8%. For the same molecule, the OCT4 expression in assay [2] (setting [5]) is given as 95.9%; in assay [2] (setting [6]) it was 97.8%; in assay [2] (setting [7]) it was 94.4%. The values for the TRA-1-60 expression in assay [2] (setting [5]), in assay [2] (setting [6]) and in assay [2] (setting [7]) were 99.1%, 99.3% and 98.7%, respectively. The aggregate size is 162.06±53 μm with iPSCs (TC1133) [3] (setting [8]), 197.41±75 μm in the assay with iPSCs (TC1133) [3] (setting [6]) and “about 200 μm” with iPSCs (TC1133) [4]. In addition, the expansion rate in the assay with iPSCs (TC1133) [3] (setting [8]) was 3.14 fold increase; with iPSCs (TC1133) [3] (setting [6]), 12.34 fold increase; in the assay on iPSCs (TC1133) [3] (day 5 after passaging, with ROCKi pretreatment) it was 9.2 fold increase. In addition, in the assay with iPSCs (TC1133) [4] (after 43 days, 8 passages, calculated from starting cell numbers and splitting ratios), the accumulated fold increase is recorded as 9.6×10^6.

As to `O=C(NCc1ccccc1)c1csc(Nc2ccncn2)n1` [TZV, thiazovivin], the “expression of pluripotency-related genes” value in assay [1] (end of passage 0, 2 and 3) is recorded as “high”. In the assay on iPSCs (TC1133) [4], the aggregate size result was “about 200 μm”. For the same molecule, in the assay with iPSCs (TC1133) [4] (iPSCs passaged with TZV compared with ROCKi), the “expansion rates of iPSCs relative to ROCKi treated cells” value is “comparable”.
